Structures are written as SMILES.

We go through one compound from patent publication US12692283B2, “Lignan derivative, preparation method therefor and use thereof” (SHANGHAI INSTITUTE OF MATERIA MEDICA, CHINESE ACADEMY OF …, priority 2021, dated 2026).

Common to all, as to type: in vivo, mouse
A short description of data set [1]: Oral pharmacokinetics of phosphate prodrug A5 in ICR mice (plasma and tissues). To be noted: oral 30 mg/kg. How it is done: Compound A5 (30 mg/kg) was administered orally to overnight fasted ICR mice (male, n=3/time point). The mice were fed 2 hours after administration. Samples were collected before administration and 1 h, 2 h, 4 h, and 8 h after administration. Blood was collected in centrifuge tubes pretreated with heparin sodium and bis(4-nitrophenyl)phosphate (BNPP). After centrifugation at 11,000 rpm for 5 min at 4° C., plasma was obtained and stored at −80° C. Next, 100 […] of plasma sample, precipitated, vortexed for 1 min, and centrifuged (11,000 rpm) for 5 min. A mixture of 20 […] of methanol/acetonitrile (1:1, v/v) was taken to analyze the concentrations of compound A5 and compound A4-1a by LC-MS/MS. Heart (blood emptying), liver, and lung tissues were stored at −80° C. until analysis. After removal of contents, the duodenum and colon were quickly washed with cold saline containing BNPP and stored at −80° C. until analysis. […] 20 μL of the supernatant was redissolved in 20 μL of ACN/H2O (1:1, v/v), and the concentrations of compound A5 and compound A4-1a were analyzed by LC-MS/MS.

The test system of data set [2] is mice with oxazolone-induced enteritis. The data set is described as follows: Efficacy in mice with oxazolone-induced inflammatory bowel disease. The conditions noted are these: intragastric 1 mg/kg/day. How it is done: Experimental animals: 30 male C57 mice, 8 weeks old.
Modeling and administration: 3% Oxazolone was dissolved in the solvent (acetone:olive oil, 1:4). After the mouse was anesthetized, the hair on the shoulder of the mouse was removed, and then 150 μL of Oxazolone with a mass fraction of 3% was added dropwise. On the 8th day after treatment, 1% Oxazolone was dissolved in a solvent (ethanol:sterilized water, 1:1). After the mice were anesthetized, 150 μL of 1% Oxazolone was administered rectally to create a model. The modeling mice were divided into two groups, with 10 mice in each group. One group was given compound A5 by gavage at 1 mg/kg/day, one group was given physiological saline, and the other group of 10 mice without modeling was used as a control group. Starting from the day of modeling, the weight of the mice was recorded every day. The feces of the mice were collected on the third day after rectal administration to observe the softness of the feces and whether there was bleeding. […]
Mouse enteritis disease activity index score: Mice were scored based on the degree of weight loss of the mouse (0: normal; 1:1-5%; 2:6-10%; 3:11-18%; 4: >18%), the degree of the softness of the feces (0: normal; 2: soft; 4: diarrhea), and the degree of feces bleeding (0: normal; 2: occult blood; 4: bloody stool), then each score was added and divide by three. […]

Data set [3] deals with mice with liver fibrosis induced by carbon tetrachloride. The data set is described as follows: Efficacy in mice with carbon tetrachloride-induced liver fibrosis. To be noted: intragastric 1 mg/kg/day and 3 mg/kg/day for 3 weeks. The protocol:
Experimental animals: 40 male C57 mice, 8 weeks old.
Modeling and administration: 400 μL of carbon tetrachloride (CCl4) was added to 3.6 mL of olive oil, mixed well, and then injected intraperitoneally at 0.1 mL/20 g, twice a week for six weeks. Six weeks later, 30 mice were divided into 3 groups, with 10 mice in each group. They were given physiological saline by gavage, 1 mg/kg A5 and 3 mg/kg A5. In addition, 10 mice that were not induced were given physiological saline as a control group. After 3 weeks of continuous administration, the mice were sacrificed, and the livers were removed, weighed, fixed and embedded, and the remaining liver tissue was cryopreserved for detection of hydroxyproline content.
Masson staining of mouse liver tissue: The mouse liver tissue was paraffin-embedded according to conventional methods, and sections were subjected to Masson staining. The specific procedures were as follows. […]
Detection of hydroxyproline content in mouse liver tissue: A hydroxyproline detection kit (Nanjing Jiancheng Bioengineering Institute) was used. […] Absorbance values of the supernatant at a wavelength of 550 nm were determined using a microplate reader. The hydroxyproline content per 100 mg of liver tissue was then calculated.

As for `COc1ccc(C[C@H]2COC(=O)[C@]2(C)Cc2ccc(OP(=O)(O)O)c(OC)c2)cc1OC` [Compound A5, 4-(((3R,4R)-4-(3,4-dimethoxybenzyl)-3-methyl-2-oxotetrahydrofuran-3-yl)methyl)-2-methoxyphenyl dihydrogen phosphate], the “drug concentration in plasma and various tissues” value in data set [1] was “good drug concentration in plasma and various tissues”. In data set [2], the colon pathology score entry was “significantly reduce the colon pathology score” and the “disease activity index of enteritis” value is listed as “significantly reduce the disease activity index”. Moreover, in data set [3], the “hydroxyproline (HYP) content in liver tissue” value was “significantly reduce the increase in hydroxyproline content” and the “positive rate of Masson staining in liver (degree of liver fibrosis)” value is recorded as “significantly reduce the degree of liver fibrosis”.
